Test results published in patent EP0866684B1, “COSMETIC HAIR TREATMENT METHOD” (UNILEVER PLC, priority 1995, dated 1997).
Like-named read-outs stand apart in the source and are kept apart here.

How the values were obtained:
[1] = system: isolated human hair follicles; assay: Fibre diameter after change from lower to higher cysteine concentration (Example 5); type: cell-based
Experimental: Follicles were isolated as described in Example 1 and cultured as described in Example 3. Fibres were isolated and diameter measured as described in Example 4. […] The change in diameter was calculated by taking, firstly the diameter at the narrowest part of the fibre for each of the three treatments and secondly the diameter of the fibre during growth after addition of cysteine - deemed to be the in vitro diameter, and taking the ratio of these to the in vivo diameter.

[2] = system: isolated human hair follicles; assay: Incorporation of radiolabelled cysteine into hair fibre in vitro (Example 2); type: cell-based; conditions: 5 hours with a range of cysteine concentrations, partly radiolabelled; 48 hours chase; liquid scintillation counting of the fibre
Experimental: Follicles were isolated as described in Example 1 and cultured for 5 hours in the presence of a range of concentrations of cysteine, a small proportion of which was radiolabelled. After 5 hours the follicles were transferred to normal supplemented Williams E medium to "chase" the radioactivity into the fibre being grown in the follicle, for 48 hours. The hair fibre was isolated from each follicle using a combination of detergent and enzyme and the 'naked' fibre dissolved and subjected to liquid scintillation counting.

sheep = conditions: cited from earlier work; for sulphur content of the "new" wool / wool growth: abomasal or intravenous infusion, sheep consuming roughage-based diets; for increase in fibre diameter: cysteine infusion, sheep wool
[3] = system: isolated human hair follicles; assay: In vitro hair follicle growth test: growth at varied cysteine concentration (Example 1); type: cell-based; conditions: concentration of cysteine + cystine (half cystine) varied in supplemented Williams E medium
Experimental: The effect of cysteine on hair diameter was assessed using an in vitro test which uses isolated human hair follicles in a culture medium.
Human hair follicles were isolated from scalp skin by the methods described by Philpott et al J Cell Science 97 463-471, 1990. […] Follicles isolated in this way were cultured as described by Westgate et al Br. J. Dermatol 129 372-379, 1993 in a completely defined culture medium called Williams E medium (obtainable from ICN FLOW), the latter supplemented with antibiotics, glutamine, hydrocortisone and Insulin. In this example the concentration of cysteine + cystine (referred to as half cystine) was varied and the daily rate of growth of follicles measured.

[4] = system: isolated human hair follicles; assay: Diameter of hair fibres grown in vitro, Laser Scan Micrometer (Example 4); type: cell-based; conditions: range of cysteine concentrations, 7-11 days of culture
Experimental: Follicles were isolated as described in Example 1 and placed into culture in supplemented Williams E medium containing a range of concentrations of cysteine. Following several days of culture(7-11), follicles were removed from the medium and the fibres isolated from the follicles as described above. The diameter of the fibres was measured using a modified Laser Scan Micrometer (Mitotoyu) coupled to a moving jig which was capable of rotating the fibre through 180° and moving the fibre through the laser beam at intervals of 0.2mm. Each isolated fibre contained a small part which was formally grown in vivo, the diameter of this "in vivo" end of the fibre. The diameter of the fibre grown in vitro was measured at intervals of 0.2mm along the fibre. For estimation of the effect of different media concentrations of cysteine on diameter, the average in vitro diameter was compared across the treatment concentrations of cysteine and the ratio of in vitro diameter to in vivo diameter was calculated.

[5] = system: isolated human hair follicles; assay: Growth of follicles moved from lower to higher cysteine medium (Example 3); type: cell-based; conditions: 2 days in medium with lower cysteine, then moved to medium with a higher amount of cysteine
Experimental: Human hair follicles were isolated as described in Example 1 and placed into culture in Williams E medium formulated to contain a lower concentration of cysteine. Follicles were cultured for 2 days in this medium then transferred to medium containing a higher amount of cysteine.

| Structure (SMILES) | diameter of the fibre ([1]; after transfer to the higher concentration of cysteine (495.0µM)) | change in diameter (ratio to the in vivo diameter) ([1]; follicles where the cysteine concentration was reversed) | diameter of the fibre ([1]; lower concentration of cysteine (9.0µM), compared with the in vivo diameter) | Incorporation of cysteine into human hair in vitro [2] | sulphur content of the "new" wool (sheep) | wool growth (sheep) | increase in fibre diameter (sheep; typical value) | increase in fibre diameter (sheep) | daily rate of growth of follicles [3] | diameter of the fibres [4] | growth rate [5] |
| --- | --- | --- | --- | --- | --- | --- | --- | --- | --- | --- | --- |
| N[C@@H](CS)C(=O)O [cysteine] | increased again | the fibre diameter was similarly reversed | decreased from the in vivo diameter | concentration dependent | increased | stimulates wool growth | 1-3 µm | 5-10% | growth increases with cysteine concentration in the medium | dependent on the concentration of cysteine available to the follicles | increasing their growth rate |
| CSCC[C@H](N)C(=O)O [methionine, reference compound] | – | – | – | – | increased | stimulates wool growth | – | – | – | – | – |
